Values joined by “and” are separate entries in the source; they are usually repeats but may differ in a detail not shown here. Equal entries are not always repeated. ± gives the expanded uncertainty stated by the source.
Legend:
[1] = refractive index (Na D-line) (dimensionless); details: 101.33 kPa, Liquid, Standard Abbe refractometry
[2] = Liquid, Ebulliometric method (Recirculating still)

CC(C)CCO [3-methylbutan-1-ol]
Details	refractive index, 298.15 K	vapor or sublimation pressure, 343.15 K [kPa]	vapor or sublimation pressure, 386.05 K [kPa]	vapor or sublimation pressure, 392.15 K [kPa]	vapor or sublimation pressure, 397.15 K [kPa]	vapor or sublimation pressure, 403.95 K [kPa]
[1]	1.403 ± 0.004	–	–	–	–	–
[2]	–	7.73 ± 0.34	53.33 ± 0.51	66.66 ± 0.55	79.99 ± 0.64	101.05 ± 0.67

CCCCO [butan-1-ol]
Details	refractive index, 298.15 K	vapor or sublimation pressure, 353.15 K [kPa]	vapor or sublimation pressure, 363.15 K [kPa]	vapor or sublimation pressure, 366.75 K [kPa]	vapor or sublimation pressure, 373.15 K [kPa]	vapor or sublimation pressure, 379.55 K [kPa]	vapor or sublimation pressure, 383.15 K [kPa]	vapor or sublimation pressure, 384.35 K [kPa]	vapor or sublimation pressure, 390.75 K [kPa]
[1]	1.397 ± 0.004	–	–	–	–	–	–	–	–
[2]	–	21.73 ± 0.36	34.13 ± 0.38	39.99 ± 0.45	51.86 ± 0.49	66.66 ± 0.56	76.52 ± 0.61	79.99 ± 0.64	100.78 ± 0.7

C1COCCN1 [tetrahydro-1,4-oxazine]
Details	refractive index	vapor or sublimation pressure
[1], 293.15 K	1.455 ± 0.004	–
[2], 343.15 K	–	13.06 ± 0.3 kPa
[2], 353.15 K	–	19.73 ± 0.31 kPa
[2], 363.15 K	–	28.93 ± 0.34 kPa
[2], 372.15 K	–	39.99 ± 0.38 kPa
[2], 373.15 K	–	41.32 ± 0.38 kPa
[2], 380.75 K	–	53.33 ± 0.42 kPa
[2], 383.15 K	–	57.86 ± 0.48 kPa
[2], 387.55 K	–	66.66 ± 0.51 kPa
[2], 393.35 K	–	79.99 ± 0.57 kPa
[2], 393.45 K	–	79.99 ± 0.57 kPa
[2], 401.15 K	–	101.05 ± 0.61 kPa and 100.78 ± 0.61 kPa

From the NIST ThermoML archive (doi:10.1021/acs.jced.7b01128)
